Patent publication US4654342A, “6-(cyanoguanidinophenyl)pyridazinones as cardiac stimulants” (Smith Kline & French Laboratories Ltd., priority 1984, dated 1987)

How the values were obtained:
[1] = tested on: left ventricular dp/dt max; experiment: Cardiac stimulant activity in vivo, anaesthetised cats (left ventricular dp/dt max); parameters: species or system cat; key to Relative Duration: ***: long; **: medium; *: short; details: for ED50: Felis catus, intravenous, dose to increase left ventricular dp/dt max by 50%, anaesthetised cats; for Relative Duration: estimated in anaesthetised cats following i.v. administration
From the text: The dose to increase left ventricular dp/dt max by 50% is given as the ED50.

right ventricular strips = experiment: Cardiac stimulant activity in vitro, guinea pig ventricular strips (force of contraction); details: Cavia porcellus; for EC50: 50% increase in force of contraction, guinea pig ventricular strips, read-out: EC50 × 10^-6 M
Experimental: The compounds of formula (I) and their pharmaceutically acceptable salts are tested for cardiac stimulant activity following a procedure based on that of S. C. Verma and J. H. McNeill (J.Pharm & Exp. Therapeutics, 200, 352-362 (1977)). Guinea pigs (500-700 g) of either sex are sacrificed and the hearts are quickly removed and transferred to a dissecting dish containing oxygenated bathing fluid. While in the bathing medium, the right ventricle is cut into two strips. The strips are each suspended in a 50 ml bath containing Krebs Henseleit solution at 37° C., and the bath is bubbled with 95% oxygen and 5% carbon dioxide. The ventricular strips are electrically stimulated at a frequency of 1.0 Hz, at double the threshold voltage. A resting tension of 1.0 g is applied to the strips and the tension is kept constant by readjustment during an equilibration period of 60 minutes. The bathing fluid is frequently changed during this period. When a steady base line is obtained, a compound under test is added to the bathing fluid and a cumulative concentration response curve is plotted. The compounds for use in the present invention which were tested gave a 50% increase in the force of contraction of the ventricular strips at concentrations in the bathing fluid of less than 10^-4 molar, thus showing that they have activity as positive inotropic agents.

[2] = tested on: hindquarters perfusion pressure; experiment: Vasodilator activity, anaesthetised cat hindquarters autoperfused at constant blood flow; type: in vivo; details: Felis catus; anaesthetised cat, constant blood flow; read-out: dose to decrease hindquarters perfusion pressure (vasodilatation) by 15%
Experimental: The compounds of Examples 3, 4, 5 and 8 were tested in autoperfused anaesthetised cat hindquarters (autoperfused at constant blood flow). The doses to decrease hindquarters perfusion pressure (vasodilatation) by 15% are given below: […]

[3] = tested on: left ventricular dp/dt max; experiment: Cardiac stimulant activity in vivo, conscious dogs (left ventricular dp/dt max); parameters: species or system dog
Experimental: Oral administration caused positive inotropic responses at doses of 0.25 mg/kg and below. […] Therefore this compound is particularly beneficial with regard to `force-rate` selectivity.

| SMILES | EC50 (right ventricular strips) | ED50 [1] | Relative Duration [1] | ED15 [2] | activation at 31.6 µM (right ventricular strips; at 31.6 × 10^-6 M, read-out: increase in force of contraction (printed in EC50 column)) | activity relative to compound of Example 1 [3] | duration relative to compound of Example 1 [3] |
| --- | --- | --- | --- | --- | --- | --- | --- |
| CC1CC(=O)NN=C1c1ccc(NC(N)=NC#N)cc1 (stereo not drawn) [Example 6, 6-[4-(N^2 -Cyanoguanidino)phenyl]-5-methyl-4,5-dihydro-3(2H)-pyridazinone] | 1400 nM | 0.7 µmol/kg | *** | – | – | – | – |
| CNC(=NC#N)Nc1ccc(C2=NNC(=O)CC2)cc1 [Example 8, 6-[4-(N^3 -Methyl-N^2-cyanoguanidino)phenyl]-4,5-dihydro3(2H)-pyridazinone] | – | 1.6 µmol/kg | ** | 1 mg/kg | 40% | – | – |
| CCCCNC(=NC#N)Nc1ccc(C2=NNC(=O)CC2C)cc1 (stereo not drawn) [Example 5, 6-[4-(N^3 -Butyl-N^2-cyanoguanidino)phenyl]-5-methyl-4,5-dihydro-3(2H)-pyridazinone] | 8500 nM | 0.31 µmol/kg | ** | 0.13 mg/kg | – | – | – |

Continued by falling EC50 (right ventricular strips), values first:

| EC50 (right ventricular strips) | SMILES | ED50 [1] | Relative Duration [1] | ED15 [2] | activation at 31.6 µM (right ventricular strips; at 31.6 × 10^-6 M, read-out: increase in force of contraction (printed in EC50 column)) | activity relative to compound of Example 1 [3] | duration relative to compound of Example 1 [3] |
| --- | --- | --- | --- | --- | --- | --- | --- |
| 15000 nM | Nc1cc(-c2ccncc2)c[nH]c1=O [Amrinone, reference compound] | 5.6 µmol/kg | * | – | – | less active | of shorter duration |
| 1400 nM | CCNC(=NC#N)Nc1ccc(C2=NNC(=O)CC2C)cc1 (stereo not drawn) [Example 3, 6-[4-(N^3 -Ethyl-N^2-cyanoguanidino)phenyl]-5-methyl-4,5-dihydro-3(2H)-pyridazinone] | 0.2 µmol/kg | *** | 0.044 mg/kg | – | – | – |
| 800 nM | CC(C)NC(=NC#N)Nc1ccc(C2=NNC(=O)CC2C)cc1 (stereo not drawn) [Example 4, 6-[4-(N^3 -Isopropyl-N^2-cyanoguanidino)phenyl]-5-methyl-4,5-dihydro-3(2H)-pyridazinone] | 0.2 µmol/kg | ** | 0.082 mg/kg | – | – | – |
